The AUC(0-inf) is total exposure, with the tail of the curve extrapolated. Usually CL/F stands for clearance divided by bioavailability, as obtained after extravascular dosing. In general, half-life refers to how long it takes for the measured level to halve. As a reminder, the AUC(0-t) is exposure summed from dosing to a finite time, without extrapolation to infinity. By Cmax is commonly meant the peak of the concentration-time curve. The Tmax is the time at which the peak concentration occurs. What is called EC90 is the concentration needed for an effect of 90%. What is called EC50 is the concentration giving half of the maximal effect.

The source of these data is publication PMC11157767 (Molecular Cancer, 2024).

One data set relates to RAD51. As to the kind of experiment: Western blot of RAD51 in TRIM24-MET or TFG-MET cells, 24 hours. The format is cell-based, human and mouse.
Data set [1] in a line: Brain pharmacokinetics in CD-1 nude mice (NCA). The format is in vivo, mouse. The conditions noted are these: for maximal concentration of unbound drug in the brain: estimated with Fu,b; for concentration reached in brain tissues: total drug. On the procedure:
Fig. 2 TFG-MET-driven mouse model and pharmacokinetic profiles of MET inhibitors. a Schematic illustrating the method and utilized vectors to induce CRISPR/Cas9-mediated Trp53 deletion and TFG-MET overexpression following in utero electroporations. b H&E staining and Immunohistochemical analysis of a tumor generated by in utero electroporation, visualized by the HA-tag of TFG-MET. […] Three mice were analyzed per compound and time point. Error bars indicate the standard deviation. Dashed rectangles indicate time windows of radiation in the following preclinical allograft study
See Methods – Pharmacokinetics section for a description of abbreviations.

Another data set deals with TRIM24-MET-i cells. The data set can be described thus: 3-day dose-response assay, TRIM24-MET-i cells. The format is cell-based. As to conditions: Homo sapiens.
Setting [2] is: CD-1 nude, mouse, 25 mg/kg, Brain, NCA estimate.
Setting [3] is: CD-1 nude, mouse, Brain, NCA estimate.
The mark [4] stands for this setting: CD-1 nude, mouse, Brain, NCA estimate, read-out: Kp,last.

Like-named read-outs stand apart in the source and are kept apart here.

Description for RAD51: Error bars display standard error of mean, statistical significance was determined using t-test analysis. (****;p<0.0001, ***;p<0.001, **;p<0.01, *;p<0.05). […] Each dot represents an individual replicate. Error bars display standard error of the mean. Statistical significance was determined using a One-Way ANOVA followed by Tukey’s multiple comparisons test (*p<0.05, **p<0.01, ***p<0.001, ****p<0.0001). Lysate from lane 10 was excluded due to the different timepoint after RT

Consider `CNC(=O)c1ccc(-c2cnc3ncc(Cc4ccc5ncccc5c4)n3n2)cc1F` [Capmatinib], for which the RAD51 protein level result in the data set on RAD51 is listed as “downregulation”. Also, in data set [1] (Brain, NCA estimate), the Clast is 42.4 ng/mL and the Tlast is 8 h. In addition, in data set [1] (CD1 nude mice), the “brain concentration at 16 hours post-dose” value is reported as “below the detection limit”, the “maximal concentration of unbound drug in the brain” value is ~ 103 nM and the “concentration reached in brain tissues” value was above 1000 nM. Moreover, in data set [1] (setting [2]), the area under the curve AUC(0-inf) is 1260 ng·h/mL, the CL/F is 330 mL/min/kg, the half-life is 2.34 h and the k el was 8.22e-05 s⁻¹. Also, the Kp in data set [1] (CD-1 nude, mouse, 25 mg/kg, Brain, NCA estimate, read-out: Kp,inf) was 0.0768. Further, the Vd/F in data set [1] (CD-1 nude, mouse, 25 mg/kg, Brain, NCA estimate, read-out: Vz/F) was 67 L/kg. In data set [1] (setting [3]), the AUC(0-t) is 1140 ng·h/mL, the Cmax is 486 ng/mL and the Tmax is 0.5 h. For the same compound, the Kp in data set [1] (setting [4]) was 0.0765. Further, in data set [1] (mouse, in vivo), the “time after administration with higher effective exposure in the murine brain than crizotinib” value was “up to 8 hours”. Moreover, the EC90 in the data set with TRIM24-MET-i cells (72 h, TRIM24-MET-i, 3-day dose response, read-out: EC90 Total) stood at 5.93 nM. Further, the EC90 in the data set on TRIM24-MET-i cells (TRIM24-MET-i, total value multiplied with unbound fraction in culture media, read-out: EC90 Unbound) was 4.18 nM.

With `C[C@@H](Oc1cc(-c2cnn(C3CCNCC3)c2)cnc1N)c1c(Cl)ccc(F)c1Cl` [Crizotinib], the RAD51 protein level result in the data set on RAD51 is given as “downregulation”. Further, in data set [1] (Brain, NCA estimate), the Clast is 453 ng/mL and the Tlast was 16 h. Further, in data set [1] (CD1 nude mice), the “maximal concentration of unbound drug in the brain” value was ~ 11 nM and the “concentration reached in brain tissues” value is above 1000 nM. In data set [1] (setting [3]), the AUC(0-t) is 6570 ng·h/mL, the Cmax is 453 ng/mL and the time of peak concentration (Tmax) was 4 h. The Kp in data set [1] (setting [4]) was 0.155. In the data set on TRIM24-MET-i cells (72 h, read-out: EC50 Total), the EC50 is 18.1 nM. In the data set on TRIM24-MET-i cells (72 h, read-out: EC90 Total), the EC90 was 322 nM. Moreover, the EC50 in the data set with TRIM24-MET-i cells (read-out: EC50 Unbound) amounted to 11.1 nM. Besides, in the data set with TRIM24-MET-i cells (read-out: EC90 Unbound), the EC90 worked out at 198 nM.
